Values of other authors as cited in patent EP1368044B1, “IMMUNOMODULATOR FOR THE MANAGEMENT OF HUMAN IMMUNODEFICIENCY VIRUS (HIV) DISEASE/INFECTION” (Bakulesh, Mafatlal Khamar, priority 2002, dated 2002).
Ends that are not written are not given here.

System: HIV
Details: along with interleukin-2

Question: For “Thymosin α1: a 28-aminoacid peptide (SDAAVDTSSEITTKDLKEKKEVVEEAEN; ends and bridges not checked; UniProt P06454 2-29, looked up)”, which “efficacy to improve CD4” value is on record?
Answer: The value was “no significant effect”.
